Experimental data taken from patent US10633383B2, “Compounds for the treatment, alleviation or prevention of disorders associated with Tau aggregates” (AC Immune SA, priority 2018, dated 2020).

How the values were obtained:
[1] = test system: human neuroblastoma cell line overexpressing the full-length form of human Tau carrying the P301L mutation; test: Reduction of intracellular Tau aggregation (AlphaLISA); assay type: cell-based; conditions: compound at 5 μM, 24 h, aggregated Tau normalized to total Tau, relative to DMSO-treated cells
Procedure: Reduction of Intracellular Tau Aggregation
A human neuroblastoma cell line overexpressing the full-length form of human Tau carrying the P301L mutation was cultured in complete medium [DMEM-F12 4.5 g/L Glutamax (Invitrogen), 15% FBS (Biochrom), 1% Peni/Strep (Invitrogen) supplemented with 2.5 μg/ml of G418 (Sigma-Aldrich) selection antibiotic]. The day before the experiment 5×10^5 cells/well were plated in a 6 well plate in 3 mL of complete medium. The next day, cells were incubated with DMSO or a compound of the present invention at a 5 μM for additional 24 h at 37° C. After incubation, cells were trypsinized, resuspended in 100 μl of homogenization buffer [25 mM Tris-HCl pH 7.4, 150 mM NaCl, 1 mM EDTA, 1 mM EGTA containing phosphatase inhibitors (30 mM NaF, 0.2 mM Na3VO4, 1 nM Okadaic acid, 1 mM PMSF, 5 mM Na4P2O7) and protease inhibitor cocktail (Complete™, Roche)], and then physically lysed with three rapid cycles of freezing and thawing. Samples were then directly tested in the AlphaLISA assay. Phosphorylated, aggregated, and total Tau were quantified by AlphaLisa using the following antibody pairs: • HT7-Acceptor beads+biotin (BT)-Tau13-Donor beads: Total Tau • HT7-Acceptor beads+biotin (BT)-HT7-Donor beads: Aggregated human Tau
The Tau13 (Abcam) was biotinylated using EZ-Link® NHS-PEO Solid Phase biotinylation kit (Thermo Scientific), while the HT7-biotin was from a commercial source (Thermo Scientific).
For each antibody pairs the concentration of acceptor beads and biotinylated antibodies was optimized. All samples were first tested in a dilution series in PBS in order to identify the linear range and optimal dilution for each sample and assay. For the final protocol, the following reagents were added in a 384-well white OptiPlate (PerkinElmer): • 5 μL of test diluted sample • 20 μL of the mixture biotin-mAb acceptor beads at the following final concentrations: • HT7-BT at 1.25 nM in combination with HT7-Acc beads at 10 μg/ml • Tau13-BT at 5 nM in combination with HT7-Acc beads at 2.5 μg/ml
After incubation of this mixture at room temperature for 1 h, 25 μL of Streptavidin Donor beads (Perkin Elmer) at 25 μg/mL were added in the dark. Plates were analyzed after 30 min incubation using the EnSpire Alpha instrument and EnSpire Workstation version 3.00. Data for aggregated Tau were normalized to total Tau and then expressed as percentage of the DMSO-treated cells.

[2] = target: T1, recombinant full-length (fl)Tau (human Tau 2N4R) aggregates (Homo sapiens, UniProt P10636); test: Full-length Tau (flTau) disaggregation assay by Thioflavin T (ThT); assay type: biochemical; conditions: 2 μM flTau aggregates, 30 minutes at RT, ThT fluorescence
T1 construct: 35 μM of recombinant full-length (fl)Tau in PBS were aggregated; made in house; host or cells: bacteria
Procedure: Full-Length Tau (flTau) Disaggregation Assay by Thioflavin T (ThT)
(§1) The longest isoform of human Tau (2N4R; 441 amino acids) was expressed in bacteria and purified. For the Tau disaggregation assay by ThT, 35 μM of recombinant full-length (fl)Tau in PBS were aggregated for 24 hours at 37° C. in presence of 50 μM of heparin (Sigma-Aldrich) and 10 mM of DTT (Sigma-Aldrich) under shaking at 750 RPM. Compounds were dissolved in anhydrous dimethyl sulfoxide (DMSO, Sigma-Aldrich) to reach a concentration of 10 mM. flTau aggregates and serial dilutions of compounds were mixed together in PBS (volume 50 μL) to a final concentration of 2 μM of flTau aggregates and from 160 to 0.04 μM of compounds. The mixture was incubated for 30 minutes at room temperature (RT), then 40 μL of this mixture were transferred into a black 384-well plate assay (Perkin-Elmer) and mixed with 10 μL of 100 μM ThT in 250 mM glycine (both from Sigma-Aldrich) in PBS. Fluorescence (relative fluorescence units; RFU) was measured in monoplicate or duplicate on a Tecan reader (excitation: 440 nm; emission: 485 nm). Percentage of flTau disaggregation was then calculated and the half maximal effective concentration (EC50) was determined using GraphPad Prism version 5 (GraphPad Software) assuming a one-binding site fitting model.

[3] = target: T2, Tau K18 fragment (amino acids 244 to 372 of human Tau441) aggregates (Homo sapiens, UniProt P10636); test: Tau K18 disaggregation assay by ThT; assay type: biochemical; conditions: 2 μM K18 aggregates, 30 minutes at RT, ThT fluorescence
T2 construct: encompassing amino acids 244 to 372 of the longest isoform (2N4R) of human Tau441; host or cells: bacteria
Procedure: Tau K18 Disaggregation Assay by ThT
as §1, with “Compounds” for “The longest isoform of human Tau (2N4R; 441 amino acids) was expressed in bacteria and purified. For the Tau disaggregation assay by ThT, 35 μM of recombinant full-length (fl)Tau in PBS were aggregated for 24 hours at 37° C. in presence of 50 μM of heparin (Sigma-Aldrich) and 10 mM of DTT (Sigma-Aldrich) under shaking at 750 RPM. Compounds”, “K18” for “flTau”, “and” for “and the”

T1 sequence (P10636 1-441 isoform P10636-8): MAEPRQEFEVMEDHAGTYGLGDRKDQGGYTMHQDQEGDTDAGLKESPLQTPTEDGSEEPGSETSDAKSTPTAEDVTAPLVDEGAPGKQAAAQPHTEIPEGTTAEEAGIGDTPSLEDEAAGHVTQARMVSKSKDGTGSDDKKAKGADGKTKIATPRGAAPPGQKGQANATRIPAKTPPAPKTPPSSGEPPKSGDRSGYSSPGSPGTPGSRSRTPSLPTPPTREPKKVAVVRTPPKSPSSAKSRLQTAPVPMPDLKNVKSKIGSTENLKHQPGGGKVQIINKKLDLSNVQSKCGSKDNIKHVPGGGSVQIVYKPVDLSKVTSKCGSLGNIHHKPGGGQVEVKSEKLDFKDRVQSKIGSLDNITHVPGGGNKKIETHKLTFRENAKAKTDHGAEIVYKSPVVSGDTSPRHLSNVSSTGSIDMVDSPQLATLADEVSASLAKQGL
T2 sequence (P10636 561-689): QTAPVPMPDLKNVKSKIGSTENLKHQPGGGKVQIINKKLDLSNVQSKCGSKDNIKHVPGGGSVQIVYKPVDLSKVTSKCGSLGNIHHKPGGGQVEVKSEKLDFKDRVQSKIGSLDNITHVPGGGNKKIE

Structure (SMILES)	inhibition at 5 µM [1]	EC50 [2]	EC50 [3]
Cn1c2c(c3ccc(F)cc31)CN(c1ccc3nc(N4CCOCC4)sc3c1)CC2 [Example 64]	10 to 25%	< 10 µM	
Fc1ccc2c3c([nH]c2c1)CCN(c1ccc2oc(N4CCOCC4)nc2c1)C3 [Example 45, 5-(7-fluoro-1,3,4,5-tetrahydropyrido[4,3-b]indol-2-yl)-2-morpholino-1,3-benzoxazole]	> 50%	< 10 µM	< 10 µM
